# In ChEMBL document CHEMBL3525924, “Cytochrome P450 3A-mediated microsomal biotransformation of 1α,25-dihydroxyvitamin D3 in mouse and human liver: drug-related induction and inhibition of catabolism” (Drug Metab Dispos, 2012):
# Test system: not listed separately
# Test: Drug metabolism in dexamethasone treated CD1 mouse liver microsomes assessed as metabolite formation at 20 uM after 30 mins by LC/MS analysis in presence of NADPH and CYP1A2 inhibitor furafyline
# Format: ADME
# Conditions: 0.5 h
row,Drug metabolism,SMILES
1,metabolite_detected,C=C1/C(=C\C=C2/CCC[C@]3(C)[C@@H]([C@H](C)CC[C@@H](O)C(C)(C)O)CC[C@@H]23)C[C@@H](O)C[C@@H]1O

# Test system: not listed separately
# Test: Drug metabolism in CD1 mouse liver microsomes assessed as metabolite formation at 20 uM after 30 mins by LC/MS analysis in presence of NADPH and CYP2C inhibitor sulfaphenazole
# Format: ADME
# Conditions: 0.5 h
row,Drug metabolism,SMILES
1,metabolite_detected,C=C1/C(=C\C=C2/CCC[C@]3(C)[C@@H]([C@H](C)CC[C@@H](O)C(C)(C)O)CC[C@@H]23)C[C@@H](O)C[C@@H]1O

# Test system: not listed separately
# Test: Drug metabolism in prednisone treated CD1 mouse liver microsomes assessed as metabolite formation at 20 uM after 30 mins by LC/MS analysis in presence of NADPH and CYP2C inhibitor sulfaphenazole
# Format: ADME
# Conditions: 0.5 h
row,Drug metabolism,SMILES
1,metabolite_detected,C=C1/C(=C\C=C2/CCC[C@]3(C)[C@@H]([C@H](C)CC[C@@H](O)C(C)(C)O)CC[C@@H]23)C[C@@H](O)C[C@@H]1O

# Test system: Liver microsome
# Test: Drug metabolism in human liver microsomes assessed as IC50 for tamoxifen-mediated inhibition of metabolite formation at 20 uM after 30 mins by LC/MS analysis
# Format: ADME
# Conditions: 0.5 h
row,IC50,SMILES
1,> 40 µM,C=C1/C(=C\C=C2/CCC[C@]3(C)[C@@H]([C@H](C)CC[C@@H](O)C(C)(C)O)CC[C@@H]23)C[C@@H](O)C[C@@H]1O

# Test system: not listed separately
# Test: Drug metabolism in prednisone treated CD1 mouse liver microsomes assessed as metabolite formation at 20 uM after 30 mins by LC/MS analysis in presence of NADPH and CYP2E inhibitor di-ethyldithiocarbamate
# Format: ADME
# Conditions: 0.5 h
row,Drug metabolism,SMILES
1,metabolite_detected,C=C1/C(=C\C=C2/CCC[C@]3(C)[C@@H]([C@H](C)CC[C@@H](O)C(C)(C)O)CC[C@@H]23)C[C@@H](O)C[C@@H]1O

# Test system: not listed separately
# Test: Drug metabolism in CD1 mouse liver microsomes assessed as metabolite formation at 20 uM after 30 mins by LC/MS analysis in presence of NADPH and CYP2E inhibitor di-ethyldithiocarbamate
# Format: ADME
# Conditions: 0.5 h
row,Drug metabolism,SMILES
1,metabolite_detected,C=C1/C(=C\C=C2/CCC[C@]3(C)[C@@H]([C@H](C)CC[C@@H](O)C(C)(C)O)CC[C@@H]23)C[C@@H](O)C[C@@H]1O

# Test system: not listed separately
# Test: Drug metabolism in prednisone treated CD1 mouse liver microsomes treated with 20 uM of 1alpha,25(OH)2D3 assessed as metabolite formation after 30 mins by LC/MS analysis in presence of NADPH
# Format: ADME
# Conditions: 0.5 h
row,Drug metabolism,SMILES
1,metabolite_detected,C=C1/C(=C\C=C2/CCC[C@]3(C)[C@@H]([C@H](C)CC[C@@H](O)C(C)(C)O)CC[C@@H]23)C[C@@H](O)C[C@@H]1O

# Test system: Liver microsome
# Test: Drug level in human liver microsomes assessed as retention time treated with 20 uM of 1alpha,25(OH)2D3 after 30 mins by LC/MS analysis in presence of NADPH
# Format: ADME
# Conditions: 0.5 h
row,Retention_time,SMILES
1,8.8 min,C=C1/C(=C\C=C2/CCC[C@]3(C)[C@@H]([C@H](C)CC[C@@H](O)C(C)(C)O)CC[C@@H]23)C[C@@H](O)C[C@@H]1O

# Test system: not listed separately
# Test: Drug metabolism in dexamethasone treated CD1 mouse liver microsomes assessed as metabolite formation at 20 uM after 30 mins by LC/MS analysis in presence of NADPH and CYP2E inhibitor di-ethyldithiocarbamate
# Format: ADME
# Conditions: 0.5 h
row,Drug metabolism,SMILES
1,metabolite_detected,C=C1/C(=C\C=C2/CCC[C@]3(C)[C@@H]([C@H](C)CC[C@@H](O)C(C)(C)O)CC[C@@H]23)C[C@@H](O)C[C@@H]1O

# Test system: Liver microsome
# Test: Drug metabolism in human liver microsomes assessed as IC50 for clarithromycin-mediated inhibition of metabolite formation at 20 uM after 30 mins by LC/MS analysis
# Format: ADME
# Conditions: 0.5 h
row,IC50,SMILES
1,> 30 µM,C=C1/C(=C\C=C2/CCC[C@]3(C)[C@@H]([C@H](C)CC[C@@H](O)C(C)(C)O)CC[C@@H]23)C[C@@H](O)C[C@@H]1O

# Test system: Liver microsome
# Test: Drug metabolism in human liver microsomes assessed as IC50 for docetaxel-mediated inhibition of metabolite formation at 20 uM after 30 mins by LC/MS analysis
# Format: ADME
# Conditions: 0.5 h
row,IC50,SMILES
1,0.077 µM,C=C1/C(=C\C=C2/CCC[C@]3(C)[C@@H]([C@H](C)CC[C@@H](O)C(C)(C)O)CC[C@@H]23)C[C@@H](O)C[C@@H]1O

# Test system: not listed separately
# Test: Drug metabolism in prednisone treated CD1 mouse liver microsomes assessed as metabolite formation at 20 uM after 30 mins by LC/MS analysis in presence of NADPH and CYP2B inhibitor orphenadrine
# Format: ADME
# Conditions: 0.5 h
row,Drug metabolism,SMILES
1,metabolite_detected,C=C1/C(=C\C=C2/CCC[C@]3(C)[C@@H]([C@H](C)CC[C@@H](O)C(C)(C)O)CC[C@@H]23)C[C@@H](O)C[C@@H]1O

# Test system: not listed separately
# Test: Drug metabolism in dexamethasone treated CD1 mouse liver microsomes assessed as metabolite formation at 20 uM after 30 mins by LC/MS analysis in presence of NADPH and CYP2D inhibitor quinine
# Format: ADME
# Conditions: 0.5 h
row,Drug metabolism,SMILES
1,metabolite_detected,C=C1/C(=C\C=C2/CCC[C@]3(C)[C@@H]([C@H](C)CC[C@@H](O)C(C)(C)O)CC[C@@H]23)C[C@@H](O)C[C@@H]1O

# Test system: not listed separately
# Test: Drug metabolism in CD1 mouse liver microsomes assessed as metabolite formation at 20 uM after 30 mins by LC/MS analysis in presence of NADPH and CYP1A2 inhibitor furafyline
# Format: ADME
# Conditions: 0.5 h
row,Drug metabolism,SMILES
1,metabolite_detected,C=C1/C(=C\C=C2/CCC[C@]3(C)[C@@H]([C@H](C)CC[C@@H](O)C(C)(C)O)CC[C@@H]23)C[C@@H](O)C[C@@H]1O

# Test system: not listed separately
# Test: Drug metabolism in CD1 mouse liver microsomes assessed as metabolite formation at 20 uM after 30 mins by LC/MS analysis in presence of NADPH and CYP2B inhibitor orphenadrine
# Format: ADME
# Conditions: 0.5 h
row,Drug metabolism,SMILES
1,metabolite_detected,C=C1/C(=C\C=C2/CCC[C@]3(C)[C@@H]([C@H](C)CC[C@@H](O)C(C)(C)O)CC[C@@H]23)C[C@@H](O)C[C@@H]1O

# Test system: not listed separately
# Test: Drug metabolism in CD1 mouse liver microsomes assessed as metabolite formation at 20 uM after 30 mins by LC/MS analysis in presence of NADPH and CYP1A1 inhibitor alpha-naphthoflavone
# Format: ADME
# Conditions: 0.5 h
row,Drug metabolism,SMILES
1,metabolite_detected,C=C1/C(=C\C=C2/CCC[C@]3(C)[C@@H]([C@H](C)CC[C@@H](O)C(C)(C)O)CC[C@@H]23)C[C@@H](O)C[C@@H]1O

# Test system: not listed separately
# Test: Drug metabolism in CD1 mouse liver microsomes assessed as metabolite formation at 20 uM after 30 mins by LC/MS analysis in presence of NADPH and CYP2D inhibitor quinine
# Format: ADME
# Conditions: 0.5 h
row,Drug metabolism,SMILES
1,metabolite_detected,C=C1/C(=C\C=C2/CCC[C@]3(C)[C@@H]([C@H](C)CC[C@@H](O)C(C)(C)O)CC[C@@H]23)C[C@@H](O)C[C@@H]1O

# Test system: not listed separately
# Test: Drug metabolism in dexamethasone treated CD1 mouse liver microsomes assessed as metabolite formation at 20 uM after 30 mins by LC/MS analysis in presence of NADPH and CYP2C inhibitor sulfaphenazole
# Format: ADME
# Conditions: 0.5 h
row,Drug metabolism,SMILES
1,metabolite_detected,C=C1/C(=C\C=C2/CCC[C@]3(C)[C@@H]([C@H](C)CC[C@@H](O)C(C)(C)O)CC[C@@H]23)C[C@@H](O)C[C@@H]1O

# Test system: not listed separately
# Test: Drug level in dexamethasone treated CD1 mouse liver microsomes treated with 20 uM of 1alpha,25(OH)2D3 after 30 mins by LC/MS analysis in presence of NADPH relative to vehicle treated mouse
# Format: ADME
# Conditions: 0.5 h
row,fold change (FC),SMILES
1,17,C=C1/C(=C\C=C2/CCC[C@]3(C)[C@@H]([C@H](C)CC[C@@H](O)C(C)(C)O)CC[C@@H]23)C[C@@H](O)C[C@@H]1O

# Test system: Liver microsome
# Test: Drug metabolism in human liver microsomes assessed as IC50 for ritonavir-mediated inhibition of metabolite formation at 20 uM after 30 mins by LC/MS analysis
# Format: ADME
# Conditions: 0.5 h
row,IC50,SMILES
1,0.028 µM,C=C1/C(=C\C=C2/CCC[C@]3(C)[C@@H]([C@H](C)CC[C@@H](O)C(C)(C)O)CC[C@@H]23)C[C@@H](O)C[C@@H]1O

# Test system: not listed separately
# Test: Drug metabolism in prednisone treated CD1 mouse liver microsomes assessed as metabolite formation at 20 uM after 30 mins by LC/MS analysis in presence of NADPH and CYP2A inhibitor 8-methoxypsoralen
# Format: ADME
# Conditions: 0.5 h
row,Drug metabolism,SMILES
1,metabolite_detected,C=C1/C(=C\C=C2/CCC[C@]3(C)[C@@H]([C@H](C)CC[C@@H](O)C(C)(C)O)CC[C@@H]23)C[C@@H](O)C[C@@H]1O

# Test system: not listed separately
# Test: Drug metabolism in prednisone treated CD1 mouse liver microsomes assessed as metabolite formation at 20 uM after 30 mins by LC/MS analysis in presence of NADPH and CYP1A1 inhibitor alpha-naphthoflavone
# Format: ADME
# Conditions: 0.5 h
row,Drug metabolism,SMILES
1,metabolite_detected,C=C1/C(=C\C=C2/CCC[C@]3(C)[C@@H]([C@H](C)CC[C@@H](O)C(C)(C)O)CC[C@@H]23)C[C@@H](O)C[C@@H]1O

# Test system: Liver microsome
# Test: Drug metabolism in human liver microsomes assessed as IC50 for ketoconazole-mediated inhibition of metabolite formation at 20 uM after 30 mins by LC/MS analysis
# Format: ADME
# Conditions: 0.5 h
row,IC50,SMILES
1,0.042 µM,C=C1/C(=C\C=C2/CCC[C@]3(C)[C@@H]([C@H](C)CC[C@@H](O)C(C)(C)O)CC[C@@H]23)C[C@@H](O)C[C@@H]1O

# Test system: not listed separately
# Test: Drug metabolism in dexamethasone treated CD1 mouse liver microsomes assessed as metabolite formation at 20 uM after 30 mins by LC/MS analysis in presence of NADPH and CYP2B inhibitor orphenadrine
# Format: ADME
# Conditions: 0.5 h
row,Drug metabolism,SMILES
1,metabolite_detected,C=C1/C(=C\C=C2/CCC[C@]3(C)[C@@H]([C@H](C)CC[C@@H](O)C(C)(C)O)CC[C@@H]23)C[C@@H](O)C[C@@H]1O

# Test system: not listed separately
# Test: Drug metabolism in prednisone treated CD1 mouse liver microsomes assessed as metabolite formation at 20 uM after 30 mins by LC/MS analysis in presence of NADPH and CYP1A2 inhibitor furafyline
# Format: ADME
# Conditions: 0.5 h
row,Drug metabolism,SMILES
1,metabolite_detected,C=C1/C(=C\C=C2/CCC[C@]3(C)[C@@H]([C@H](C)CC[C@@H](O)C(C)(C)O)CC[C@@H]23)C[C@@H](O)C[C@@H]1O

# Test system: not listed separately
# Test: Drug metabolism in CD1 mouse liver microsomes assessed as metabolite formation at 20 uM after 30 mins by LC/MS analysis in presence of NADPH and CYP2A inhibitor 8-methoxypsoralen
# Format: ADME
# Conditions: 0.5 h
row,Drug metabolism,SMILES
1,metabolite_detected,C=C1/C(=C\C=C2/CCC[C@]3(C)[C@@H]([C@H](C)CC[C@@H](O)C(C)(C)O)CC[C@@H]23)C[C@@H](O)C[C@@H]1O

# Test system: not listed separately
# Test: Drug metabolism in dexamethasone treated CD1 mouse liver microsomes assessed as metabolite formation at 20 uM after 30 mins by LC/MS analysis in presence of NADPH and CYP1A1 inhibitor alpha-naphthoflavone
# Format: ADME
# Conditions: 0.5 h
row,Drug metabolism,SMILES
1,metabolite_detected,C=C1/C(=C\C=C2/CCC[C@]3(C)[C@@H]([C@H](C)CC[C@@H](O)C(C)(C)O)CC[C@@H]23)C[C@@H](O)C[C@@H]1O

# Test system: not listed separately
# Test: Drug metabolism in prednisone treated CD1 mouse liver microsomes assessed as metabolite formation at 20 uM after 30 mins by LC/MS analysis in presence of NADPH and CYP2D inhibitor quinine
# Format: ADME
# Conditions: 0.5 h
row,Drug metabolism,SMILES
1,metabolite_detected,C=C1/C(=C\C=C2/CCC[C@]3(C)[C@@H]([C@H](C)CC[C@@H](O)C(C)(C)O)CC[C@@H]23)C[C@@H](O)C[C@@H]1O

# Test system: not listed separately
# Test: Drug metabolism in dexamethasone treated CD1 mouse liver microsomes assessed as metabolite formation at 20 uM after 30 mins by LC/MS analysis in presence of NADPH and CYP2A inhibitor 8-methoxypsoralen
# Format: ADME
# Conditions: 0.5 h
row,Drug metabolism,SMILES
1,metabolite_detected,C=C1/C(=C\C=C2/CCC[C@]3(C)[C@@H]([C@H](C)CC[C@@H](O)C(C)(C)O)CC[C@@H]23)C[C@@H](O)C[C@@H]1O
